Reference: patent publication US20250288704A1, “CXCR4-LIGANDS FOR DIAGNOSTIC AND THERAPEUTIC USE AND PRECURSORS THEREOF” (priority 2021, published 2025)
Positions of bridges follow the written chain, without caps; N, C: chain ends. Non-standard residues stand in square brackets, D forms with d. Residues, ends and D or L forms follow the SMILES beside them. Groups on a side chain read outwards from the residue. Chains are numbered I, II in the order given. *: point of attachment. X2 = OC[C@H]1O[C@@H](O[C@H]2[C@H](O)[C@@H](O)[C@H](*)O[C@@H]2CO)[C@H](O)[C@@H](O)[C@H]1O; X3 = OCC1OC(OC2C(CO)OC(*)C(O)C2O)C(O)C(O)C1O; 2Nal = N[C@@H](Cc1ccc2ccccc2c1)C(=O)O; dCit = NC(=O)NCCC[C@@H](N)C(=O)O; dNMeOrn = CN[C@H](CCCN)C(=O)O; d(hCys) = N[C@H](CCS)C(=O)O; HYNIC = NNc1ccc(C(=O)*)cn1; Mercaptoacetyl = O=C(CS)*; X4 = OCC1OC(*)C(O)C(O)C1O; 4Abz = Nc1ccc(C(=O)O)cc1; dDap = NC[C@@H](N)C(=O)O

Legend:
[1] = Biodistribution in Jurkat tumor-bearing CB-17 SCID mice; type: in vivo; settings: female, CB-17 SCID, mouse, in vivo, iv, total radioactivity
Method in brief: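 Radioligand (125I, 177Lu, 99mTc, 18F or 68Ga label; roughly 0.5-20 MBq, 0.02-0.20 nmol) was injected intravenously via tail vein. Hosts were CB17-SCID mice with subcutaneous Jurkat tumors of 5-8 mm, 4-10 weeks post-inoculation. Dissected organs were weighed and counted in a γ-counter.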

[2] = Octanol/PBS partition coefficient (logD7.4); type: physicochemical; settings: n-octanol/PBS pH 7.4, radiolabeled compound
Description: The tubes were vortexed at maximum speed for 3 min to ensure equilibrium before centrifugation at 15.000×g for 5 min on a Biofuge 15 from Heraeus Holding GmbH (Osterode, Germany). An aliquot of 100 μL of each fraction was measured in the γ-counter and the log D7.4 calculated as follows: […]

[3] = system: CXCR4-expressing Chem_1 cells; experiment: Determination of internalization, dual tracer with 125I-Fc-131; type: cell-based; settings: for Cell-bound [%] / Internalized [%]: of total cellular activity
Method in brief: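 Receptor blockade used AMD3100 (1 mM stock) versus medium-treated wells, triplicate per time point, in Chem_1 cells cultured at 37 °C in DMEM-F12/10% FBS. Activity of supernatant, surface-bound and internalized (1 M NaOH) fractions measured by γ-counter, corrected for non-specific uptake and normalised to standard ligand.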

[4] = biological target: T1, CXCR4 (Homo sapiens, UniProt P61073); experiment: Determination of inverse IC50 (invIC50): radiolabeled peptide displaced by Fc-131 on Jurkat cells
Description: For in vitro experiments, cells were counted in a hemocytometer using trypan blue as contrast agent. The cell suspension was centrifuged, and the pellet resuspended in HBSS (+1 wt % BSA) to a concentration of 2 mio cells/mL. 8×3 polystyrene tubes were loaded with 25 μL of the standard ligand ^125I-Fc-131 (see 4.1, 1.00 nM in HBSS) and 25 μL of the ligand to investigate in the respective concentration (10^−4-10^−10 M, n=3 for each concentration). 200 μL of cell suspension (400.000 cells per well) were added to obtain a final peptide concentration range of 10^−5-10^−11 M. The tubes were cooled for 2 h at 8° C. to prevent internalization. The experiment was stopped by removal of the supernatant. 200 μL HBSS were added onto the cells, the suspension centrifuged, and the supernatant pooled with the respective first fractions. This step was repeated once more before the tubes containing the supernatants and the ones containing the cell pellets were subjected to activity measurement in the γ-counter.
For the determination of inverse IC50 (invIC50) values the protocol for the determination of regular IC50 values was resumed with minor changes. The peptide under investigation was radioactively labeled and a stock solution was prepared in HBSS (2.00 nM). A concentration gradient of the standard ligand Fc-131 was prepared in HBSS (10^−4-10^−10 M). A cell tube was then containing 25 μL of the radioactive peptide solution, 25 μL of the respective Fc-131 solution and 200 μL cell suspension (400.000 cells). The experiment was conducted as described above.

[5] = biological target: T1, CXCR4; experiment: Determination of IC50: competition with 125I-Fc-131 on CXCR4-positive Jurkat cells; type: binding; set-up: CXCR4-positive Jurkat T lymphocyte cells were grown in Gibco's RPMI 1640 GlutaMAX medium; endogenous in cells; host or cells: Jurkat T lymphocyte cells (whole cells in suspension, 400.000 per tube);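 also: test compound at 10^−5 to 10^−11 M competed for 2 h at 8 °C with the radioligand on 400,000 cells per well, bound versus free activity measured by γ-counting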

T1 sequence (P61073 whole entry): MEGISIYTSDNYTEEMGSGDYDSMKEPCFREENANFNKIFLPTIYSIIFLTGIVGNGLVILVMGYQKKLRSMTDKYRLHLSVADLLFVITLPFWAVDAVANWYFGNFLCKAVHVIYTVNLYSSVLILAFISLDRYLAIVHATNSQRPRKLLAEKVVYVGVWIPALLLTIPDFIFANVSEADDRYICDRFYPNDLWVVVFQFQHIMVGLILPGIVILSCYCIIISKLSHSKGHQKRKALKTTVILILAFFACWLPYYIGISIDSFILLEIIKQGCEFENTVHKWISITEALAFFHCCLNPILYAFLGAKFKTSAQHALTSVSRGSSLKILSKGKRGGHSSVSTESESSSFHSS

| Compound | tissue uptake at 1 h ([1]; % iD/g Blood) [%ID/g] | tissue uptake at 1 h ([1]; % iD/g Bone) [%ID/g] | tissue uptake at 1 h ([1]; % iD/g Heart) [%ID/g] | tissue uptake at 1 h ([1]; % iD/g Intestine) [%ID/g] | tissue uptake at 1 h ([1]; % iD/g Kidney) [%ID/g] | tissue uptake at 1 h ([1]; % iD/g Liver) [%ID/g] | tissue uptake at 1 h ([1]; % iD/g Lung) [%ID/g] | tissue uptake at 1 h ([1]; % iD/g Muscle) [%ID/g] | tissue uptake at 1 h ([1]; % iD/g Pancreas) [%ID/g] | tissue uptake at 1 h ([1]; % iD/g Spleen) [%ID/g] | tissue uptake at 1 h ([1]; % iD/g Stomach) [%ID/g] | tissue uptake at 1 h ([1]; % iD/g Tumor) [%ID/g] | logD7.4 [2] | Internalized in relation to 125I-Fc-131 [%] ([3]; 30 min) | Cell-bound [%] ([3]; 30 min) | Internalized [%] ([3]; 30 min) | IC50 [4] [nM] | Internalization [% Fc-131] ([3]; 90 min) | Internalized in relation to 125I-Fc-131 [%] ([3]; 90 min) | Cell-bound [%] ([3]; 90 min) | further results |
| --- | --- | --- | --- | --- | --- | --- | --- | --- | --- | --- | --- | --- | --- | --- | --- | --- | --- | --- | --- | --- | --- |
| C[C@@H](NC(=O)[C@@H](CCCNC(=N)N)NC(=O)[C@@H](CN)NC(=O)[C@@H](CCCNC(N)=O)NC(=O)[C@@H](CCSC1OC(CO)C(OC2OC(CO)C(O)C(O)C2O)C(O)C1O)NC(=O)[C@@H](CCCNC(N)=O)NC(=O)CS)C(=O)Nc1ccc(C(=O)NCCC[C@@H]2C(=O)N[C@@H](CCCNC(=N)N)C(=O)N[C@@H](Cc3ccc4ccccc4c3)C(=O)NCC(=O)N[C@H](Cc3ccc(O)cc3)C(=O)N2C)cc1 (stereo partly shown) [Tc-CXCR4-12] (I: Mercaptoacetyl-[dCit][d(hCys)](X3)[dCit][dDap][dR][dA][4Abz] / II: cyclo([2Nal]G[dY][dNMeOrn]R); amide I:C-II:4) | 1.74 | 0.95 | 1.14 | 1.25 | 35 | 11 | 3.96 | 0.34 | 0.8 | 4.72 | 2.03 | 7.39 | −2.92 ± 0.06 (8) | 284 ± 92.3 | 8.56 ± 0.66 | 9.64 ± 1.31 | 4.82 ± 1.36 | – | – | – | Internalized in relation to 125I-Fc-131 [%] ([3]; 15 min): 192 ± 38.1%; Cell-bound [%] ([3]; 15 min): 3.77 ± 0.83%; Internalized [%] ([3]; 15 min): 3.79 ± 0.69%; Internalized in relation to 125I-Fc-131 [%] ([3]; 60 min): 395 ± 72.2%; Cell-bound [%] ([3]; 60 min): 14.1 ± 0.71%; Internalized [%] ([3]; 60 min): 11.6 ± 2.01%; Internalization [% Fc-131] ([3]; 120 min): 473 (120 min) % Fc-131; Internalized in relation to 125I-Fc-131 [%] ([3]; 120 min): 473 ± 41.9%; Cell-bound [%] ([3]; 120 min): 7.42 ± 2.12%; Internalized [%] ([3]; 120 min): 18.1 ± 0.85% |
| C[C@@H](NC(=O)[C@@H](CCCNC(=N)N)NC(=O)[C@@H](CN)NC(=O)[C@@H](CCSC1OC(CO)C(O)C(O)C1O)NC(=O)[C@@H](CCSC1OC(CO)C(O)C(O)C1O)NC(=O)[C@@H](CCSC1OC(CO)C(O)C(O)C1O)NC(=O)CS)C(=O)Nc1ccc(C(=O)NCCC[C@@H]2C(=O)N[C@@H](CCCNC(=N)N)C(=O)N[C@@H](Cc3ccc4ccccc4c3)C(=O)NCC(=O)N[C@H](Cc3ccc(O)cc3)C(=O)N2C)cc1 (stereo partly shown) [Tc-CXCR4-9] (I: Mercaptoacetyl-[d(hCys)](X4)[d(hCys)](X4)[d(hCys)](X4)[dDap][dR][dA][4Abz] / II: cyclo([2Nal]G[dY][dNMeOrn]R); amide I:C-II:4) | 1.42 | 0.47 | 0.87 | 1.5 | 14.8 | 3.97 | 2.4 | 0.24 | 0.5 | 1.24 | 3.51 | 5.92 | −2.56 ± 0.03 (6) | 86.4 ± 9.62 | 3.69 ± 0.56 | 7.00 ± 0.74 | 3.5 ± 0.65 | 103 (90 min) % Fc-131 | 103 ± 6.56 | 3.69 ± 0.49 | Internalized [%] ([3]; 90 min): 12.5 ± 0.67% |
| C[C@@H](NC(=O)[C@@H](CCCNC(=N)N)NC(=O)[C@@H](CN)NC(=O)[C@@H](CO)NC(=O)[C@@H](CCS[C@@H]1O[C@H](CO)[C@@H](O[C@@H]2O[C@H](CO)[C@H](O)[C@H](O)[C@H]2O)[C@H](O)[C@H]1O)NC(=O)[C@@H](CO)NC(=O)CS)C(=O)Nc1ccc(C(=O)NCCC[C@@H]2C(=O)N[C@@H](CCCNC(=N)N)C(=O)N[C@@H](Cc3ccc4ccccc4c3)C(=O)NCC(=O)N[C@H](Cc3ccc(O)cc3)C(=O)N2C)cc1 [Tc-CXCR4-11] (I: Mercaptoacetyl-[dS][d(hCys)](X2)[dS][dDap][dR][dA][4Abz] / II: cyclo([2Nal]G[dY][dNMeOrn]R); amide I:C-II:4) | 1.36 | 0.71 | 0.95 | 0.72 | 29 | 5.94 | 2.85 | 0.28 | 0.48 | 2.31 | 1.16 | 6.71 | −2.94 ± 0.02 (8) | 178 ± 26.2 | 3.74 ± 0.33 | 6.98 ± 0.78 | 2.05 ± 0.95 | – | – | – | Internalized in relation to 125I-Fc-131 [%] ([3]; 15 min): 71.9 ± 11.4%; Cell-bound [%] ([3]; 15 min): 1.79 ± 0.36%; Internalized [%] ([3]; 15 min): 3.16 ± 0.46%; Internalized in relation to 125I-Fc-131 [%] ([3]; 60 min): 145 ± 19.8%; Cell-bound [%] ([3]; 60 min): 7.02 ± 0.06%; Internalized [%] ([3]; 60 min): 7.10 ± 0.84%; Internalization [% Fc-131] ([3]; 120 min): 221 (120 min) % Fc-131; Internalized in relation to 125I-Fc-131 [%] ([3]; 120 min): 221 ± 23.4%; Cell-bound [%] ([3]; 120 min): 4.25 ± 0.67%; Internalized [%] ([3]; 120 min): 10.8 ± 1.13% |
| C[C@@H](NC(=O)[C@@H](CCCNC(=N)N)NC(=O)[C@@H](CN)NC(=O)[C@@H](CO)NC(=O)[C@@H](CO)NC(=O)[C@@H](CO)NC(=O)CS)C(=O)Nc1ccc(C(=O)NCCC[C@@H]2C(=O)N[C@@H](CCCNC(=N)N)C(=O)N[C@@H](Cc3ccc4ccccc4c3)C(=O)NCC(=O)N[C@H](Cc3ccc(O)cc3)C(=O)N2C)cc1 [Tc-CXCR4-6] (I: Mercaptoacetyl-[dS][dS][dS][dDap][dR][dA][4Abz] / II: cyclo([dY][dNMeOrn]R[2Nal]G); amide I:C-II:2) | – | – | – | – | – | – | – | – | – | – | – | – | −1.54 ± 0.02 (6) | 470 ± 17.4 | 6.56 ± 0.31 | 17.4 ± 0.40 | 3.67 ± 0.77 | 525 (90 min) % Fc-131 | 526 ± 29.0 | 6.90 ± 0.29 | IC50 [5]: 4.97 ± 1.34 nM; Internalized [%] ([3]; 90 min): 27.1 ± 0.50% |
| C[C@@H](NC(=O)[C@@H](CCCNC(=N)N)NC(=O)[C@@H](CN)NC(=O)c1ccc(NN)nc1)C(=O)Nc1ccc(C(=O)NCCC[C@@H]2C(=O)N[C@@H](CCCNC(=N)N)C(=O)N[C@@H](Cc3ccc4ccccc4c3)C(=O)NCC(=O)N[C@H](Cc3ccc(O)cc3)C(=O)N2C)cc1 [Tc-CXCR4-13] (cyclo([dY][dNMeOrn]([4Abz-dA-dR-dDap-HYNIC])R[2Nal]G)) | 1.56 | 0.81 | 0.78 | 0.57 | 29.5 | 2.62 | 1.94 | 1.52 | 0.36 | 2.43 | 1.98 | 8.02 | −2.74 ± 0.03 (5) | 434 ± 18.8 | 7.56 ± 0.38 | 18.0 ± 0.27 | 4.16 ± 1.5 | 503 (90 min) % Fc-131 | 503 ± 16.2 | 7.65 ± 0.47 | Internalized [%] ([3]; 90 min): 25.5 ± 0.57% |
